In patent US20260374739A1, “SMALL MOLECULAR WEIGHT CHEMICAL COMPOUND TO ANTAGONIZE EPH-EPHRIN TETRAMERIZATION AND INHIBIT BIDIRECTIONAL SIGNALING” (THE BOARD OF REGENTS OF THE UNIVERSITY OF TEXAS SYSTEM, priority 2022, published 2026):
pIC50: −log10 of the molar value. “And” between values parts separate entries of the source, which are not always exact repeats. Equal values may be shown once. Read-outs that look alike come from different tables or passages of the source. Marks after values point to notes of the source that are not given here.

What was measured:
EphrinB2-EphB2 [1] = molecular target: T1, EphrinB2-EphB2 (Homo sapiens, UniProt P29323); assay: Octet tetramerization inhibition, immobilized human EphrinB2 binding to 50 nM soluble human EphB2
T1 construct: soluble human EphB1-His, EphB2-His, and EphB4-His ectodomains; commercially available human EphrinB1-Fc (EB1), EphrinB2-Fc (EB2), and EphrinB3-Fc (EB3) ectodomain proteins; purchased
T1 sequence (P29323 19-543 limits assumed): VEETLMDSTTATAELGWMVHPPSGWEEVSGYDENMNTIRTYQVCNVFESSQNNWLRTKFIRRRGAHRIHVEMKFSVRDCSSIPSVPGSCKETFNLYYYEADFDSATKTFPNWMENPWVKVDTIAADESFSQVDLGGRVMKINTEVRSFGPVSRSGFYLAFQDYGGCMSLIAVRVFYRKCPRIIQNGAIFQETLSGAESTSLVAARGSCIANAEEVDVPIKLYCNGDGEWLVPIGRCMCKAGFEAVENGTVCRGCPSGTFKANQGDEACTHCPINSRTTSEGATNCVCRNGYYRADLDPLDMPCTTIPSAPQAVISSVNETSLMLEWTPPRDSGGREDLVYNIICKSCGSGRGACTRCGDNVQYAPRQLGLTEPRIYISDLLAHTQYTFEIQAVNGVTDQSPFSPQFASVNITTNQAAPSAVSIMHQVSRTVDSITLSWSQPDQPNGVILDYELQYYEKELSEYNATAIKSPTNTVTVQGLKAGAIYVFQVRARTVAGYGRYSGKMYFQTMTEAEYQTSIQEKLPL

EphrinB2-EphB2 [2] = molecular target: T1, EphrinB2-EphB2; assay: Octet 80 sec association/500 sec dissociation, immobilized human EphrinB2-Fc binding to soluble human EphB2-His; conditions: for inhibition at 3.2 µM: EphB2, 25 nM EphB2, 3.2 μM compound, A20-I as max control, 0* = less than 0, no inhibition; for EphB2 Inhibition Percent, Inhibition of Association ONLY: at 3.2 μM and 80 seconds; for EphB2 Inhibition Percent, Inhibition of Association ONLY / EphB2 Inhibition Percent, Inhibition of Association-Dissociation: immobilized human EphrinB2, 25 nM soluble human EphB2; for EphB2 Inhibition Percent, Inhibition of Association-Dissociation: at 3.2 μM and 580 seconds
Outline: (§1)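 EphrinB2-Fc captured on AHC biosensors, then soluble His-tagged EphB ectodomain (25 nM for % inhibition runs) associated 80 s and dissociated 500 s in PBS, 0.05% Tween-20, 1% DMSO ± compound. Compounds tested at 0.1–3.2 μM with a 10 μM max standard; IC50 from AUC of full traces or at 75 s and 135 s.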

EphrinB2-EphB4 = molecular target: T2, EphrinB2-EphB4 (Homo sapiens, UniProt P54760); assay: Octet 80 sec association/500 sec dissociation, immobilized human EphrinB2-Fc binding to soluble human EphB4-His; conditions: for inhibition at 3.2 µM: EphB4, 25 nM EphB4, 3.2 μM compound, A20-I as max control, 0* = less than 0, no inhibition; for EphB4 Inhibition Percent, Inhibition of Association ONLY: at 3.2 μM and 80 seconds; for EphB4 Inhibition Percent, Inhibition of Association ONLY / EphB4 Inhibition Percent, Inhibition of Association-Dissociation: immobilized human EphrinB2, 25 nM soluble human EphB4; for EphB4 Inhibition Percent, Inhibition of Association-Dissociation: at 3.2 μM and 580 seconds
T2 construct: soluble human EphB1-His, EphB2-His, and EphB4-His ectodomains; commercially available human EphrinB1-Fc (EB1), EphrinB2-Fc (EB2), and EphrinB3-Fc (EB3) ectodomain proteins; purchased
T2 sequence (P54760 16-539 limits assumed): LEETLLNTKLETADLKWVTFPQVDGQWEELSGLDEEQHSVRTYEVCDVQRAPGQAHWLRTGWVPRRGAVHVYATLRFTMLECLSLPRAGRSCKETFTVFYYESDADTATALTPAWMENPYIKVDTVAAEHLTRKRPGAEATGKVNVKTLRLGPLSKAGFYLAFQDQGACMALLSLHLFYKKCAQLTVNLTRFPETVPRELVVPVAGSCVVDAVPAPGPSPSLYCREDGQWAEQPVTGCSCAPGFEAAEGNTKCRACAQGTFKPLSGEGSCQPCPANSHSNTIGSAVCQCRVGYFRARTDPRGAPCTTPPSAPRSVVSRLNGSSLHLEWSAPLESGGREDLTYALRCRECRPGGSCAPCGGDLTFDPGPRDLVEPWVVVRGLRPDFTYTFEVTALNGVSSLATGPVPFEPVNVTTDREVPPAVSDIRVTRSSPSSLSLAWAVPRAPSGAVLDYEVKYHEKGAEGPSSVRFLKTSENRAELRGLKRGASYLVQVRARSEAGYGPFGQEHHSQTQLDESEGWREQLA
Outline: as §1

[3] = Absolute AUC/IC50, Table A, EphrinB2-EphB2
[4] = Absolute Dissociation IC50 (450 sec), Table A, EphrinB2-EphB2
[5] = Relative AUC/IC50, Table A, EphrinB2-EphB2, compound 7: association only
[6] = Relative Association IC50 (300 sec), Table A, EphrinB2-EphB2
[7] = Relative Dissociation IC50 (450 sec), Table A, EphrinB2-EphB2
[8] = read-out: % Inhibition: Association + Dissociation (160 sec)
[9] = read-out: % Inhibition: Association ONLY (80 sec)

Row | EphB2 Inhibition Percent, Inhibition of Association ONLY (EphrinB2-EphB2 [2]) | EphB2 Inhibition Percent, Inhibition of Association-Dissociation (EphrinB2-EphB2 [2]) | EphB4 Inhibition Percent, Inhibition of Association ONLY (EphrinB2-EphB4) | EphB4 Inhibition Percent, Inhibition of Association-Dissociation (EphrinB2-EphB4) | SMILES | pIC50 (EphrinB2-EphB2 [1]; [3]) | pIC50 (EphrinB2-EphB2 [1]; [4]) | pIC50 (EphrinB2-EphB2 [1]; [5]) | pIC50 (EphrinB2-EphB2 [1]; [6]) | pIC50 (EphrinB2-EphB2 [1]; [7]) | also measured
1 |  |  |  |  | Oc1ccc(CN2CCOCC2)c2cccnc12 [Compound 1, 5-(morpholinomethyl)quinolin-8-ol] | < 5.80 | < 5.80 | < 5.80 | < 5.80 | < 5.80 | tetramerization inhibitor activity (EphrinB2-EphB2 [1]): only weak ability to inhibit formation of the EB2-EphB2 tetramer; pIC50 (EphrinB2-EphB2 [1]; Absolute Association IC50 (300 sec), Table A, EphrinB2-EphB2): < 5.80; pIC50 (EphrinB2-EphB2 [1]; tetramerization inhibitor IC50 (relative), association step, surmountable tetramer): < 5.80; inhibition of EphrinB2-EphB interactions (EphrinB2-EphB2 [2]; 3.2 μM, EphB1, EphB2 and EphB4): generally less active towards all three interactions
2 |  |  |  |  | Oc1ccc(CN2CCN(Cc3ccc(Br)cc3)CC2)c2cccnc12 [Compound 42, 5-((4-(4-bromobenzyl)piperazin-1-yl)methyl)quinolin-8-ol] | 5.60 | 5.72 | 6.03 | 5.99 | 5.98 | inhibition at 3.2 µM (EphrinB2-EphB2 [2]; [8]): 56.3%; inhibition at 3.2 µM (EphrinB2-EphB2 [2]; [9]): 37.8%; selectivity among EphrinB2-EphB1/B2/B4 (EphrinB2-EphB4; 3.2 μM): ability to selectively inhibit EphrinB2-EphB2 and EphrinB2-EphB1 interactions, while sparing the EphrinB2-EphB4 interaction; inhibition at 3.2 µM (EphrinB2-EphB4; [8]): 0%; inhibition at 3.2 µM (EphrinB2-EphB4; [9]): 0%
3 | 54.9% | 72.9% | 0*% | 5.8% | Oc1ccc(CN2CCCCC2)c2cccnc12 [Compound 68, 5-(piperidin-1-ylmethyl)quinolin-8-ol, reference compound] |  |  |  |  |  | 
4 | 5.4% | 35.1% | 0*% | 2.7% | COCc1cc(CN2CCN(C)CC2)c(O)c2ncccc12 [Compound 77, 5-(methoxymethyl)-7-((4-methylpiperazin-1-yl)methyl)quinolin-8-ol, reference compound] |  |  |  |  |  | 
5 | 59.7% and 46.7% | 77.8% and 71.3% | 17.9% and 11.6% | 34.5% and 29.6% | Oc1c(CN2CCCCC2)cc(Cl)c2cccnc12 [Compound 76, 5-chloro-7-(piperidin-1-ylmethyl)quinolin-8-ol, reference compound] |  |  |  |  |  | 
